# Test results: ChEMBL document CHEMBL5442663, “ASAP - Solubility” (2024)
# Test: Kinetic solubility of compound by measuring concentration at pH 7.4 in saturated PBS buffer by UV LCMS/MS using calibration curves. The assay has been performed by Enamine biological services, Bienta Ltd.The protocol is publicly available: dx.doi.org/10.17504/protocols.io.j8nlk8y41l5r/v1
# Type: physicochemical
# Conditions: PBS buffer
row,solubility kinetic [µM],SMILES
1,367,COc1ccc([C@H](Cc2nnn[nH]2)NC(=O)c2ncnc3[nH]ccc23)cc1
2,358,C[C@H](C(=O)O)[C@@H](NC(=O)c1ncnc2[nH]ccc12)c1ccc(Br)cc1
3,19,CC(C)[C@H](Nc1ncnc2[nH]c(-c3cnn(CC(=O)N(C)C)c3)cc12)c1ccc2c(c1)OCCO2
